Data published in US20030109570A1 (priority 2002, published 2003).
Structures can show the parent of a compound that is named as a salt.

Experiments:
[1] = molecular target: T1, human PPARγ receptor (Homo sapiens, UniProt P37231); assay: Luciferase assay using human PPARγ receptor (Gal4 chimera, CV-1 cells); type: cell-based; conditions: 24 h, luciferase activity of Pioglitazone at 1 μM = 100, read-out: PPARγ agonist activity, Relative activity
T1 construct: expressed in transfected cells; host or cells: CV-1 cells, pSG5-based Gal4-PPAR expression vector
T1 sequence (P37231 204-505): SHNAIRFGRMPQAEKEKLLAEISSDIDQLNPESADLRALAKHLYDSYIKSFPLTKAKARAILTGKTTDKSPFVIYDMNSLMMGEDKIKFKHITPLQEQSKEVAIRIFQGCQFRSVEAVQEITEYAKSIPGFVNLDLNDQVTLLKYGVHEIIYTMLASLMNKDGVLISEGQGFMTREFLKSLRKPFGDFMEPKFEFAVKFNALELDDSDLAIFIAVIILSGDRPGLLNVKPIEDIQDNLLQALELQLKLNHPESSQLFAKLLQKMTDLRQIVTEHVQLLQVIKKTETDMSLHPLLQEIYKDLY
Procedure: (§1) 1) Materials for a Luciferase Assay Using Human PPARα and γ
(§2) The entire procedure was conducted using a usual yeast one- or two-hybrid system according to a basic genetic engineering process.
(§3) pGL2-UAS5-TK-luc was prepared as a reporter plasmid having a response sequence of the Gal4 protein as an yeast basic transcription factor and a luciferase gene (luc) under the control by an enhancer sequence with five times repeats of UAS and the thymidine kinase (TK) promoter promoter.
(§4) A vector expressing a chimera receptor in which a ligand binding region in an intranuclear receptor human PPARα or γ receptor was fused to the […] terminus in the DNA binding region of the yeast Gal4 protein was prepared as follows. Specifically, using pSG5 (trade name, STRATAGENE, Catalogue No.216201) as a basic expression vector, the structural gene was replaced with that of a chimera receptor.
(§5) A DNA encoding the ligand binding region in human PPARα or γ receptor was inserted downstream of the DNA binding region in the Gal4 protein, i.e., the DNA encoding the 1st to 147th amino acid sequence such that the frames were aligned and it was inserted downstream of the promoter-enhancer region in pSG5 (trade name). For localizing the expressed chimera receptor in the nucleus, the DNA sequence was constructed such that a nuclear transition signal derived from SV-40T antigen, Ala Pro Lys Lys Lys Arg Lys Val Gly (SEQ ID NO. 4) was present at the amino terminus of the ligand binding region in the human PPARα or γ receptor.
(§6) As the structural gene segment for a ligand binding region in the human PPARα or γ receptor, a DNA was used which encoded:
human PPARγ ligand binding region: Ser^176-Tyr^478
which correspond to Ser^204-Tyr^506 in the human PPARγ 1 receptor and PPARγ 2 receptor and thus have the same base sequence, from structural comparison for human PPAR receptors described in R. Mukherjee et al., J. Steroid Biochem. Molec. Biol., Vol. 51, p.157 (1994); M. E. Green et al. (Gene Expression., Vol.4, p.281 (1995). For monitoring an effect on basic transcription, was also prepared an expression vector having encoding only the DNA binding region of the Gal4 protein lacking the PPAR ligand binding region, the 1st to 147th amino acid sequence and a nuclear transition signal for SV-40T-antigen.
(§7) 2) Luciferase Assay Using the Human PPARα or γ Receptor
(§8) CV-1 cells used as a host cell were cultured as usual. Specifically, a fetal calf serum (Intergen, Catalogue No.1020-90) was added to the Dulbecco modified eagle medium (DMEM) to the final concentration of 10%, and penicillin G and streptomycin sulfate were then added to the final concentrations of 50 U/mL and 50 μg/mL, respectively. In the medium, the cells were cultured at 37° C. under 5% carbon dioxide.
(§9) The day before transfection, the cells were inoculated in a 24 well plate at 1.5×10^5 cells/well in advance. LipofectAMINE (trade name, GIBCOBRL, Catalogue No.26300-61) was used for transfection. Specifically, for each well, in 40 μL of a serum-free medium Opti-MEM (trade name, GIBCOBRL, Catalogue No.31985-070) were well mixed 100 ng of a reporter plasmid, 12.5 ng of Gal4-PPAR expression vector, 200 ng of pRL-TK (trade name) as an internal control, 287.5 ng of pGEM-3Zf(+) (trade name, PROMEGA, Catalogue No. P2271) as a carrier DNA and 2.6 μL of LipofectAMINE (trade name, GIBCOBRL, Catalogue No.26300-61). To the mixture was added 170.2 μL of Opti-MEM (trade name). After washing with PBS (Phosphate Buffered Saline) and Opti-MEM (trade name), the mixture was added to the above cells. After culturing at 37° C. for 16 hours, the medium was replaced with DMEM-10% charcoal-[…] treated fetal calf serum (trade name, HyClone, Catalogue No. SH30068.03) containing a compound of this invention. After culturing at 37° C. for 24 hours, the cells were lysed and determined for its luciferase activity as usual.

[2] = molecular target: T2, human PPARα receptor (Homo sapiens, UniProt Q07869); assay: Luciferase assay using human PPARα receptor (Gal4 chimera, CV-1 cells); type: cell-based; conditions: 24 h, luciferase activity of Wy-14.643 at 10 μM = 100, read-out: PPARα agonist activity, Relative activity
T2 construct: and; expressed in transfected cells; host or cells: CV-1 cells, pSG5-based Gal4-PPAR expression vector
T2 sequence (Q07869 167-468): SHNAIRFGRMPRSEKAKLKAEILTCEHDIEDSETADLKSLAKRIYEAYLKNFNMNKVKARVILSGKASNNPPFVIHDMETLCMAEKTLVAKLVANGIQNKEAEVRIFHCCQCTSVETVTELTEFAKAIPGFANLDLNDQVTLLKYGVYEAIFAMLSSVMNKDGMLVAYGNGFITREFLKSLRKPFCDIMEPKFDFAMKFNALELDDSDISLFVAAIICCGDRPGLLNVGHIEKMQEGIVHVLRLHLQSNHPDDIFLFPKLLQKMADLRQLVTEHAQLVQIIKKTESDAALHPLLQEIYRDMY
Procedure: as §1, §2, §3, §4, §5, §6
human PPARα ligand binding region: Ser^167-Tyr^468; and
as §7, §8, §9

[3] = system: KKAy mouse; assay: Hypoglycemic and hypolipidemic effects using a diabetic model mouse (KKAy mouse); type: in vivo; conditions: KKAy mice, 30 mg/kg orally once daily for four days, fifth day vs first day; for Reduction rate of a free fatty acid level / Reduction rate of a triglyceride level: plasma
Procedure: Type II diabetic mice “KK-Ay/Ta Jci” (male, Nippon Clare, 10 weeks, five per a group) in each cage were used. In the morning of the initial day of the study, blood was collected from an orbital vein. A glucose level was determined using a new blood sugar test (Boehringer Mannheim) for a centrifuge supernatant after deproteination of the blood with perchloric acid. The blood was centrifuged to prepare a plasma. Then, a triglyceride and a free fatty acid levels in the plasma were determined using Triglyceride E-Test Wako and NEFA-C Test Wako (Wako Pure Chemicals, Inc.), respectively. […] On the fifth day of the study, a blood was collected for determination of a blood glucose level, a triglyceride level and a free fatty acid level. A group to which only 0.5% aqueous CMC solution was administered was used as a control group while a group to which pioglytazone was administered was used as a positive control. A reduction rate for a parameter in each group was calculated using the following equation.

Work on `CCOC(=O)C(C)(Cc1cc2cc(OC)c(OC)cc2s1)Oc1ccc(C#N)cc1` (stereo not drawn) [Example 1] yielded an Emax at 0.1 µM [1] of 0.4%, an Emax at 1 µM [1] of 3.2% and an Emax at 10 µM [1] of 81.5%. It also gave an Emax at 0.1 µM [2] of 0.2%, an Emax at 1 µM [2] of 0.2% and an Emax at 10 µM [2] of 0.5%.
`COc1cc2cc(CC(C)(Oc3ccc(C#N)cc3)C(=O)O)sc2cc1OC` (stereo not drawn) [Example 2] gave an Emax at 0.1 µM [1] of 17.8%, an Emax at 1 µM [1] of 81.9% and an Emax at 10 µM [1] of 78.7%. It also gave an Emax at 0.1 µM [2] of 0.1%, an Emax at 1 µM [2] of 0.1% and an Emax at 10 µM [2] of 66.4%.
`COc1cc2cc(CC(C)(Oc3ccc(C(C)C)cc3)C(=O)O)sc2cc1OC` (stereo not drawn) [Example 3, 3-(5,6-dimethoxybenzothiophen-2-yl)-2-(4-isopropylphenoxy)-2-methylpropanoic Acid] showed an Emax at 0.1 µM [1] of 9.5%, an Emax at 1 µM [1] of 86.7% and an Emax at 10 µM [1] of 86.1%. It also gave an Emax at 0.1 µM [2] of 13.2%, an Emax at 1 µM [2] of 116% and an Emax at 10 µM [2] of 111%.
`COc1cc2sc(CC(C)(Oc3ccc(C(C)C)cc3)C(=O)O)cc2c(Cl)c1OC` (stereo not drawn) [Example 4, 3-(4-chloro-5,6-dimethoxybenzothiophen-2-yl)-2-(4-isopropylphenoxy)-2-methylpropanoic Acid] showed an Emax at 0.1 µM [1] of 8%, an Emax at 1 µM [1] of 68% and an Emax at 10 µM [1] of 69.9%. It also gave an Emax at 0.1 µM [2] of 0.3%, an Emax at 1 µM [2] of 2.9% and an Emax at 10 µM [2] of 249%. For the same molecule, the “Reduction rate of a blood glucose level” value [3] was 58%, the “Reduction rate of a free fatty acid level” value [3] was 69% and the “Reduction rate of a triglyceride level” value [3] was 85%.
`COc1cc2cc(CC(C)(Oc3ccc(C(=N)N4CCOCC4)cc3)C(=O)O)sc2cc1OC` (stereo not drawn) [Example 5, 3-(5,6-dimethoxybenzothiophen-2-yl) -2-methyl-2-(4-morpholinoamidinophenoxy)propanoic Acid Hydrochloride] showed an Emax at 0.1 µM [1] of 0.3%, an Emax at 1 µM [1] of 0.3% and an Emax at 10 µM [1] of 3.1%. For the same molecule, the Emax at 0.1 µM [2] was 0.2%, the Emax at 1 µM [2] was 0.3% and the Emax at 10 µM [2] was 0.7%.
Work on `COc1cc2sc(/C=C(\Oc3ccc(C(C)C)cc3)C(=O)O)cc2c(Cl)c1OC` [Example 6, (Z)-3-(4-chloro-5,6-dimethoxybenzothiophen-2-yl)-2-(4-isopropylphenoxy)propenoic Acid] yielded an Emax at 0.1 µM [1] of 1.2%, an Emax at 1 µM [1] of 19% and an Emax at 10 µM [1] of 60.1%. It also gave an Emax at 0.1 µM [2] of 0.1%, an Emax at 1 µM [2] of 0.1% and an Emax at 10 µM [2] of 0.1%.
For `CCOC(=O)C(C)(Cc1cc2ccccc2s1)C(N)=O` (stereo not drawn) [Example 8, 2-(benzothiophen-2-yl)methyl-2-methylmalonamide Ethyl Ester], the Emax at 0.1 µM [1] was 0.3%, the Emax at 1 µM [1] was 0.3% and the Emax at 10 µM [1] was 0.3%. The Emax at 0.1 µM [2] was 0.1%, the Emax at 1 µM [2] was 0.1% and the Emax at 10 µM [2] was 0.2%.
Work on `CC(Cc1cc2ccccc2s1)(C(=O)O)C(=O)NC1CCCCC1` (stereo not drawn) [Example 10, 2-(benzothiophen-2-yl)methyl-2-methylmalonic Acid N-cyclohexylamide] yielded an Emax at 0.1 µM [1] of 1.2%, an Emax at 1 µM [1] of 2.1% and an Emax at 10 µM [1] of 31.2%. The Emax at 0.1 µM [2] was 0.1%, the Emax at 1 µM [2] was 0.1% and the Emax at 10 µM [2] was 20.7%.
In the case of `CC(Cc1cc2ccccc2s1)(C(=O)O)C(=O)N1CCOCC1` (stereo not drawn) [Example 11, 2-(benzothiophen-2-yl)methyl-2-methylmalonic Acid N-morpholinoamide], the Emax at 0.1 µM [1] is reported as 0.3%, the Emax at 1 µM [1] is reported as 0.3% and the Emax at 10 µM [1] is reported as 0.3%. For the same molecule, the Emax at 0.1 µM [2] was 0.1%, the Emax at 1 µM [2] was 0.2% and the Emax at 10 µM [2] was 0.3%.
With `CC(C)c1ccc(NC(=O)C(C)(Cc2cc3ccccc3s2)C(=O)O)cc1` (stereo not drawn) [Example 12, 2-(benzothiophen-2-yl)methyl-2-methylmalonic Acid N-(4-isopropylphenyl)amide] the Emax at 0.1 µM [1] was 0.3%, the Emax at 1 µM [1] was 0.3% and the Emax at 10 µM [1] was 0.5%. For the same molecule, the Emax at 0.1 µM [2] was 0.2%, the Emax at 1 µM [2] was 0.2% and the Emax at 10 µM [2] was 0.2%.
`COc1cc2cc(CC(C)(C(=O)O)C(=O)NC3CCCCC3)sc2cc1OC` (stereo not drawn) [Example 14, 2-(5,6-dimethoxybenzothiophen-2-yl)methyl-2-methylmalonic Acid N-cyclohexylamide] was tested, and the Emax at 0.1 µM [1] was 0.3%, the Emax at 1 µM [1] was 0.3% and the Emax at 10 µM [1] was 0.5%. The Emax at 0.1 µM [2] was 0.2%, the Emax at 1 µM [2] was 0.2% and the Emax at 10 µM [2] was 0.6%.
With `COc1cc2cc(CC(C)(Oc3ccc(C#N)cc3)C(N)=O)sc2cc1OC` (stereo not drawn) [Example 15] the Emax at 0.1 µM [1] was 0.5%, the Emax at 1 µM [1] was 0.4% and the Emax at 10 µM [1] was 1.1%. For the same molecule, the Emax at 0.1 µM [2] was 0.2%, the Emax at 1 µM [2] was 0.2% and the Emax at 10 µM [2] was 0.1%.
Molecule `CCCCNC(=O)C(C)(Cc1cc2cc(OC)c(OC)cc2s1)Oc1ccc(C#N)cc1` (stereo not drawn) [Example 16] has an Emax at 0.1 µM [1] of 0.4%, an Emax at 1 µM [1] of 0.4% and an Emax at 10 µM [1] of 0.3%. The Emax at 0.1 µM [2] was 0.2%, the Emax at 1 µM [2] was 0.2% and the Emax at 10 µM [2] was 0.1%.
For `CCc1ccc(CCOc2ccc(CC3SC(=O)NC3=O)cc2)nc1` (stereo not drawn) [Pioglytazone, Pioglitazone, reference compound], the “Reduction rate of a blood glucose level” value [3] was 28%, the “Reduction rate of a free fatty acid level” value [3] was 49% and the “Reduction rate of a triglyceride level” value [3] was 60%.
